Our source for the IC50 values is US20050004126A1 (priority 2001, published 2005).

One assay addresses MMP-13CD (catalytic domain of collagenase 3) (Homo sapiens, UniProt P45452). As to the kind of experiment: Thiopeptolide hydrolysis assay, MMP-13.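 Also: inhibition of enzymatic thiopeptolide substrate cleavage (100 µM) in pH 6.0 MES buffer with CaCl2 and DTNB, comparing hydrolysis with versus without inhibitor.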 As to conditions: MMP13 IC50 μM, Table IVb.
In turn, `CCn1c(=O)n(Cc2cccc(F)c2)c(=O)c2cc(C(=O)NCc3ccncc3)ccc21` returned an IC50 of 0.1 µM.
On to `CCn1c(=O)n(Cc2cccc(F)c2)c(=O)c2cc(C(=O)NCc3cccnc3)ccc21`, for which the IC50 was found to be 0.36 µM.
The same measure, in the same setting: in the case of `COc1ccc(CNC(=O)c2ccc3c(c2)c(=O)n(CCCc2ccccc2)c(=O)n3C)cc1` it was 0.59 µM; in that of `COc1ccc(CNC(=O)c2ccc3c(c2)c(=O)n(Cc2ccc(-c4noc(=O)[nH]4)cc2)c(=O)n3C)cc1`, 0.0015 µM.
`COc1ccc(CNC(=O)c2ccc3c(c2)c(=O)n(Cc2ccc(S(N)(=O)=O)cc2)c(=O)n3C)cc1` returned an IC50 of 0.008 µM.
On the same count and under the same terms, in the case of `COc1ccc(CNC(=O)c2ccc3c(c2)c(=O)n(C/C=C/c2cccnc2)c(=O)n3C)cc1` it was 0.095 µM.
On to `COc1ccc(CNC(=O)c2ccc3c(c2)c(=O)n(C/C=C/c2ccncc2)c(=O)n3C)cc1`, for which half-maximal inhibition (IC50) required 0.035 µM.
`COc1ccc(CNC(=O)c2ccc3c(c2)c(=O)n(Cc2cccnc2)c(=O)n3C)cc1` showed an IC50 of 0.046 µM.
As for `COc1ccc(CNC(=O)c2ccc3c(c2)c(=O)n(CC2CCCN(C)C2)c(=O)n3C)cc1` (stereo not shown), the IC50 was 5.4 µM.
In the case of `CC(c1cccc2ccccc12)n1c(=O)c2cc(C(=O)NCc3ccc4c(c3)OCO4)ccc2n(C)c1=O` (stereo not shown), the IC50 was 9.4 µM.
`COc1ccc(CNC(=O)c2ccc3c(c2)c(=O)n(CCN2CCOCC2)c(=O)n3C)cc1` returned an IC50 of 9.3 µM.
The same measure, in the same setting: in the case of `CNS(=O)(=O)c1ccc(Cn2c(=O)c3cc(C(=O)NCc4ccc(OC)cc4)ccc3n(C)c2=O)cc1` it was 0.0044 µM; in that of `COc1ccc(CNC(=O)c2ccc3c(c2)c(=O)n(Cc2ccc([N+](=O)[O-])cc2)c(=O)n3C)cc1`, 0.014 µM; in that of `COc1ccc(CNC(=O)c2ccc3c(c2)c(=O)n(Cc2ccc(C4(C(=O)O)CC4)cc2)c(=O)n3C)cc1`, 0.0033 µM.
On the same count and under the same terms, the figure for `COc1ccc(CNC(=O)c2ccc3c(c2)c(=O)n(Cc2ccc(C(=O)O)c(F)c2)c(=O)n3C)cc1` is 0.001 µM; for `COc1ccc(CNC(=O)c2ccc3c(c2)c(=O)n(Cc2ccc(C(=O)OCCN(C)C)c(OC)c2)c(=O)n3C)cc1` it is 0.5 µM; for `COc1ccc(CNC(=O)c2ccc3c(c2)c(=O)n(CC2CCCCC2)c(=O)n3C)cc1` it is 0.042 µM.
Same read-out and setting: the figure for `COc1ccc(CNC(=O)c2ccc3c(c2)c(=O)n(CC2CC2)c(=O)n3C)cc1` is 0.95 µM; for `COc1ccc(CNC(=O)c2ccc3c(c2)c(=O)n(CCO)c(=O)n3C)cc1` it is 6.35 µM; for `COCCn1c(=O)c2cc(C(=O)NCc3ccc(OC)cc3)ccc2n(C)c1=O` it is 1.35 µM.
In turn, `CCN(CC)c1ccc(C(=O)Cn2c(=O)c3cc(C(=O)NCc4ccc(OC)cc4)ccc3n(C)c2=O)cc1` had an IC50 of 3.64 µM.
Same read-out and setting: the figure for `COc1ccc(CNC(=O)c2ccc3c(c2)c(=O)n(Cc2ccc(F)c(Cl)c2)c(=O)n3C)cc1` is 0.012 µM; for `COc1ccc(CNC(=O)c2ccc3c(c2)c(=O)n(Cc2cccc(C#N)c2)c(=O)n3C)cc1` it is 0.027 µM.
The same measure, in the same setting: in the case of `Cn1c(=O)n(Cc2cccc(F)c2)c(=O)c2cc(C(=O)NCc3ccncc3)ccc21` it was 0.017 µM; in that of `COc1cc(CNC(=O)c2ccc3c(c2)c(=O)n(Cc2cccc(F)c2)c(=O)n3C)ccn1`, 0.0058 µM; in that of `Cn1c(=O)n(Cc2cccc(F)c2)c(=O)c2cc(C(=O)NCc3cccnc3)ccc21`, 0.067 µM.
The compound `COc1ccc(CNC(=O)c2ccc3c(c2)c(=O)n(Cc2cccc(F)c2)c(=O)n3C)cc1` yielded an IC50 of 0.0079 µM.
Same read-out and setting: in the case of `COc1cccc(CNC(=O)c2ccc3c(c2)c(=O)n(Cc2cccc(F)c2)c(=O)n3C)c1` it was 0.021 µM.
The same measure, in the same setting: in the case of `COc1ccc(CNC(=O)c2ccc3c(c2)c(=O)n(Cc2cccc(OC)c2)c(=O)n3C)cc1` it was 0.023 µM; in that of `Cn1c(=O)n(Cc2ccc(F)c(Cl)c2)c(=O)c2cc(C(=O)NCc3ccncc3)ccc21`, 0.026 µM; in that of `Cn1c(=O)n(Cc2ccc(F)c(F)c2)c(=O)c2cc(C(=O)NCc3cccnc3)ccc21`, 0.067 µM.
The same measure, in the same setting: the figure for `Cn1c(=O)n(Cc2ccc(F)c(F)c2)c(=O)c2cc(C(=O)NCc3ccncc3)ccc21` is 0.032 µM.
Compound `COc1ccc(CNC(=O)c2ccc3c(c2)c(=O)n(Cc2ccc(F)c(F)c2)c(=O)n3C)cc1` came in with an IC50 of 0.0098 µM.
`COc1ccc(CNC(=O)c2ccc3c(c2)c(=O)n(Cc2ccc(N)cc2)c(=O)n3C)cc1` displayed an IC50 of 0.0093 µM.
Still for that read-out and setting: the figure for `COc1ccc(CNC(=O)c2ccc3c(c2)c(=O)n(Cc2ccc(Br)cc2)c(=O)n3C)cc1` is 0.013 µM.
Same read-out and setting: the figure for `COc1cc(CNC(=O)c2ccc3c(c2)c(=O)n(Cc2ccc(Br)cc2)c(=O)n3C)ccn1` is 0.0076 µM; for `COc1cccc(CNC(=O)c2ccc3c(c2)c(=O)n(Cc2ccc(Cl)cc2)c(=O)n3C)c1` it is 0.0043 µM.
`COc1cc(CNC(=O)c2ccc3c(c2)c(=O)n(Cc2ccc(Cl)cc2)c(=O)n3C)ccn1` showed an IC50 of 0.011 µM.
`Cn1c(=O)n(Cc2ccc(Cl)cc2)c(=O)c2cc(C(=O)NCc3cccnc3)ccc21`: the IC50 was 0.093 µM.
Still for that read-out and setting: in the case of `Cn1c(=O)n(Cc2ccc(Cl)cc2)c(=O)c2cc(C(=O)NCc3ccncc3)ccc21` it was 0.053 µM.
The same measure, in the same setting: the figure for `COc1ccc(CNC(=O)c2ccc3c(c2)c(=O)n(Cc2ccc(C#N)cc2)c(=O)n3C)cc1` is 0.008 µM.
Same read-out and setting: the figure for `COc1ccc(CNC(=O)c2ccc3c(c2)c(=O)n(Cc2ccc(C(=O)N(C)C)cc2)c(=O)n3C)cc1` is 0.012 µM; for `COc1ccc(CNC(=O)c2ccc3c(c2)c(=O)n(Cc2ccc(CC(=O)N(C)C)cc2)c(=O)n3C)cc1` it is 0.008 µM.
`COc1ccc(CNC(=O)c2ccc3c(c2)c(=O)n(Cc2ccc(S(=O)(=O)N(C)C)cc2)c(=O)n3C)cc1` had an IC50 of 0.007 µM.
Same read-out and setting: the figure for `Cn1c(=O)n(Cc2ccc(F)cc2)c(=O)c2cc(C(=O)NCc3ccncc3)ccc21` is 0.071 µM.
On the same count and under the same terms, in the case of `COc1cc(CNC(=O)c2ccc3c(c2)c(=O)n(Cc2ccc(F)cc2)c(=O)n3C)ccn1` it was 0.011 µM; in that of `COc1cccc(CNC(=O)c2ccc3c(c2)c(=O)n(Cc2ccc(F)cc2)c(=O)n3C)c1`, 0.0046 µM.
Same read-out and setting: the figure for `Cn1c(=O)n(Cc2ccc(F)cc2)c(=O)c2cc(C(=O)NCc3cccnc3)ccc21` is 0.12 µM.
`COc1ccc(CNC(=O)c2ccc3c(c2)c(=O)n(Cc2ccc(F)cc2)c(=O)n3C)cc1` showed an IC50 of 0.0145 µM.
The same measure, in the same setting: in the case of `COc1ccc(CNC(=O)c2ccc3c(c2)c(=O)n(Cc2ccc(S(C)(=O)=O)cc2)c(=O)n3C)cc1` it was 0.0125 µM; in that of `COc1ccc(CNC(=O)c2ccc3c(c2)c(=O)n(Cc2ccc(S(=O)(=O)NCCN(C)C)cc2)c(=O)n3C)cc1`, 0.055 µM; in that of `COc1ccc(CNC(=O)c2ccc3c(c2)c(=O)n(Cc2cccc(C(=O)O)c2)c(=O)n3C)cc1`, 0.018 µM.
Still for that read-out and setting: the figure for `Cn1c(=O)n(Cc2ccc(C(=O)O)cc2)c(=O)c2cc(C(=O)NCc3ccc(O)cc3)ccc21` is 0.002 µM; for `COc1ccc(CNC(=O)c2ccc3c(c2)c(=O)n(CC=CC(=O)O)c(=O)n3C)cc1` it is 1.4 µM.
On the same count and under the same terms, the figure for `COc1ccc(CNC(=O)c2ccc3c(c2)c(=O)n(Cc2ccc(C(=O)OCCN(C)C)c(C)c2)c(=O)n3C)cc1` is 0.11 µM; for `COc1ccc(CNC(=O)c2ccc3c(c2)c(=O)n(CCCC(=O)O)c(=O)n3C)cc1` it is 1.15 µM; for `COc1ccc(CNC(=O)c2ccc3c(c2)c(=O)n(Cc2ccc(C(=O)OCOC(=O)C(NC(=O)C(N)C(C)C)C(C)C)cc2)c(=O)n3C)cc1` (stereo not shown) it is 0.039 µM.
As for `COc1ccc(CNC(=O)c2ccc3c(c2)c(=O)n(Cc2ccc(C(=O)OCCN(C)C)cc2)c(=O)n3C)cc1`, the IC50 amounted to 0.037 µM.
In turn, `COc1ccc(CNC(=O)c2ccc3c(c2)c(=O)n(Cc2ccc(C(=O)OCC(=O)OC(C)(C)C)cc2)c(=O)n3C)cc1` registered an IC50 of 0.088 µM.
`COc1ccc(CNC(=O)c2ccc3c(c2)c(=O)n(Cc2ccc(C(=O)O)s2)c(=O)n3C)cc1` registered an IC50 of 0.0084 µM.
Take `COc1ccc(CNC(=O)c2ccc3c(c2)c(=O)n(Cc2ccc(C(=O)O)o2)c(=O)n3C)cc1`: the half-inhibitory concentration (IC50) was found to be 0.057 µM.
The same measure, in the same setting: the figure for `CCOC(=O)CCCn1c(=O)c2cc(C(=O)NCc3ccc(OC)cc3)ccc2n(C)c1=O` is 2.55 µM.
The same measure, in the same setting: in the case of `CCOC(=O)Cn1c(=O)c2cc(C(=O)NCc3ccc(OC)cc3)ccc2n(C)c1=O` it was 0.65 µM.
The same measure, in the same setting: in the case of `COC(=O)c1cccc(Cn2c(=O)c3cc(C(=O)NCc4ccc(OC)cc4)ccc3n(C)c2=O)c1` it was 0.12 µM; in that of `COC(=O)CCn1c(=O)c2cc(C(=O)NCc3ccc(OC)cc3)ccc2n(C)c1=O`, 2.1 µM; in that of `COC(=O)c1ccc(Cn2c(=O)c3cc(C(=O)NCc4ccc(OC)cc4)ccc3n(C)c2=O)o1`, 0.29 µM.
In turn, `COC(=O)c1ccc(Cn2c(=O)c3cc(C(=O)NCc4ccc(OC)cc4)ccc3n(C)c2=O)s1` registered an IC50 of 0.021 µM.
Still for that read-out and setting: in the case of `COC(=O)Cc1ccc(Cn2c(=O)c3cc(C(=O)NCc4ccc(OC)cc4)ccc3n(C)c2=O)cc1` it was 0.0034 µM; in that of `COc1ccc(CNC(=O)c2ccc3c(c2)c(=O)n(-c2ccc(CC(=O)O)cc2)c(=O)n3C)cc1`, 8 µM.
The same measure, in the same setting: the figure for `COc1ccc(CNC(=O)c2ccc3c(c2)c(=O)n(Cc2ccc(CC(=O)O)cc2)c(=O)n3C)cc1` is 0.0022 µM; for `COC(=O)/C=C/Cn1c(=O)c2cc(C(=O)NCc3ccc(OC)cc3)ccc2n(C)c1=O` it is 0.315 µM; for `COc1ccc(CNC(=O)c2ccc3c(c2)c(=O)n(Cc2ccc(C4(C(=O)OC(C)(C)C)CC4)cc2)c(=O)n3C)cc1` it is 0.0665 µM.

Still in this assay, the particulars now being: MMP13 IC50 (nM), Table II.
`CCOc1ccc(C(=O)NCc2cccc(OC)c2)cc1C(=O)NCc1cccc(OC)c1`: half-maximal inhibition (IC50) was put at 1.83 µM.
The same measure, in the same setting: the figure for `COc1ccc(CNC(=O)c2ccc(OC)c(C(=O)NCc3ccncc3)c2)cc1` is 1.5 µM.
Consider `COc1ccc(C(=O)NCc2ccc3c(c2)OCO3)cc1C(=O)NCCOc1ccccc1`, for which it took 4.4 µM to reach half-maximal inhibition (IC50).
As to `COc1ccc(CNC(=O)c2ccc(OC)c(C(=O)NCc3ccccc3)c2)cc1` [listing 1 of 2 here], inhibition was half-maximal at 0.43 µM (IC50).
Same read-out and setting: in the case of `COc1cccc(CNC(=O)c2cccc(C(=O)NCc3cccc([N+](=O)[O-])c3)c2)c1` it was 2.1 µM.
The same measure, in the same setting: the figure for `COc1ccc(C(=O)NCCOc2ccccc2)cc1C(=O)NCc1ccc2c(c1)OCO2` is 3.1 µM; for `COc1ccc(CNC(=O)c2ccc(OC)c(C(=O)NCc3ccccc3)c2)cc1` [listing 2 of 2 here] it is 0.81 µM.
